Read-outs that look alike come from different tables or passages of the source.
Columns and labels:
Caco-2 cells = assay: Permeability, Caco-2 assay; format: in vitro ADME; details: 37 °C; for Mean Papp A to B: Caco-2, pH 7.40, 2 hours
Experimental: Permeability of test compounds was determined in Caco-2 Assay. Caco-2 cells purchased from ATCC were seeded onto […] membranes (PET) in 96-well Corning Insert plates at 1×10^5 cells/cm^2, and refreshed medium every 4~5 days until to the 21st to 28th day for confluent cell monolayer formation. The transport buffer in the study was HBSS with 10.0 mM HEPES at pH 7.40±0.05. Test compound was tested at […] bi-directionally in duplicate. Digoxin was tested at 10.0 μM bi-directionally in duplicate, while nadolol and metoprolol were tested at 2.00 μM in A to B direction in duplicate. Final DMSO concentration was adjusted to less than 1%. The plate was incubated for 2 hours in CO2 incubator at 37±1° C., with 5% CO2 at saturated humidity without shaking. And all samples after mixed with acetonitrile containing internal standard were centrifuged at 3200×g for 10 min. For nadolol and metoprolol, 200 μL supernatant solution was diluted with 600 μL ultra-pure water for LC-MS/MS analysis. For digoxin and test compounds, 200 μL supernatant solution was diluted with 200 μL ultra-pure water for LC-MS/MS analysis. Concentrations of test and control compounds in starting solution, donor solution, and receiver solution were quantified by LC-MS/MS methodologies, using peak area ratio of analyte/internal standard. After transport assay, lucifer yellow rejection assay was applied to determine the Caco-2 cell monolayer integrity.

[1] = Body weight change in PDX study in NCG mice; format: in vivo; details: P.O QD × 27; all mice
Source text: Mice were assigned into groups using randomized block design based on their tumor volumes. The test article administration and the animal numbers in each study group are shown in the following experimental design table 5, the PDX model information are shown in the table 6.
For routine monitoring, all study animals were monitored for not only tumor growth but also behavior such as mobility, food, and water consumption (by cage side checking only), body weight (BW), eye/hair matting and any other abnormal effect. Any mortality and/or abnormal clinical signs were recorded.
Body weights of all animals were measured twice a week throughout the study. Body weight change, expressed in %, is calculated using the following formula: BWL (%)=(BWi−BW0)/BW0×100, BWi is the body weight, BW0 is the bodyweight on the first day of treatment.
The statistical software GraphPad Prism was used to analyze the difference in tumor volume and body weight between the treatment group and the vehicle control group. All the data is described as Mean±SEM, and one-way ANOVA analysis of variance was performed.

[2] = system: ER+/KAT6a^high ZR-75-1 breast cancer cell line; assay: In vitro cytotoxicity in ER+/KAT6a^high ZR-75-1 breast cancer cell line (CTG assay, 14 days); format: cell-based, Human
Experimental: Single agent experiments (n=3 per each compound) were performed to obtain the IC10, IC25, IC50 and IC75 values for each drug to be used hereafter in the combo treatment.
The cytotoxicity was evaluated by CTG assay upon 14 days of treatment and stimulation with 1 nM E2. Statistical analysis was performed by 2 way ANOVA Tukey's multiple comparison test (* 0.01<p<0.05).
Human ER+/KAT6A^high breast cancer cell line ZR-75-1 (ATCC, Virginia, US) was cultured in RPMI 1640 medium (Gibco, Life Technologies, Carlsbad, CA, USA) supplemented with 10% fetal bovine serum (FBS)(Sigma, Saint Louis, CA, USA). All cells were incubated at 37° C., 5% CO2, 80-95% relative humidity.
Stock solutions were added at appropriate concentration in culture medium before the addition to cells.
For the cytotoxicity assay, cells were previously starved 48 h in RPMI 1640 no phenol red supplemented with 8% charcoal stripped FBS, and then seeded at appropriate density (2000 cells/well) in starvation media the day before starting the treatment. […] Concentration range was previously identified in single agent cytotoxic assay for the same time points in order to include in the combination experiment IC10, IC25, IC50 and IC75 values for each drug. After 14 days of treatment, CellTiter-Glo® 2.0 Cell Viability Assay (CTG)(Promega, Madison, WI, USA) was added to assess cell viability. Luminescence was measured 10 min later using Tecan Infinite M200 (Tecan Trading AG, Switzerland).

Row | Structure (SMILES) | Mean Papp A to B (Caco-2 cells) | further results
1 | COc1cccc(OC)c1S(=O)(=O)Nc1noc2cc(Oc3ccccn3)cc(OC)c12 [Compound 9, 2,6-dimethoxy-N-(4-methoxy-6-(pyridin-2-yloxy)benzo[d]isoxazol-3-yl)benzenesulfonamide] | 11.8 10^-6 cm/s | –
2 | COc1cccc(OC)c1S(=O)(=O)Nc1noc2cc(Cn3cccn3)c3c(c12)OCCC3 [Compound 14, N-(5-((1H-pyrazol-1-yl)methyl)-3,4-dihydro-2H-chromeno[8,7-d]isoxazol-9-yl)-2,6-dimethoxybenzenesulfonamide] | 0.439 10^-6 cm/s | –
3 | COc1cccc(OC)c1S(=O)(=O)Nc1noc2cc(Cn3cccn3)c3c(c12)OCCCC3 [Compound 19, N-(6-((1H-pyrazol-1-yl)methyl)-2,3,4,5,9,10-hexahydrooxepino [3′,2′: 5,6]benzo[1,2-d]isoxazol-10-yl)-2,6-dimethoxybenzenesulfonamide] | 3.47 10^-6 cm/s | –
4 | COc1cccc(OC)c1S(=O)(=O)Nc1noc2cc(Oc3ccccn3)cc(OC(F)F)c12 [Compound 22, N-(4-(difluoromethoxy)-6-(pyridin-2-yloxy)benzo[d]isoxazol-3-yl)-2,6-dimethoxybenzenesulfonamide] | 3.45 10^-6 cm/s | –
5 | COc1cccc(OC)c1S(=O)(=O)Nc1noc2cc(Oc3ccccn3)c3c(c12)OCC3 [Compound 23, 2,6-dimethoxy-N-(4-(pyridin-2-yloxy)-2,3-dihydrobenzofuro[7,6-d]isoxazol-8-yl)benzenesulfonamide] | 1.30 10^-6 cm/s | –
6 | COc1cccc(OC)c1S(=O)(=O)Nc1noc2cc(Oc3ccccn3)c3c(c12)OCCC3 [Compound 24, 2,6-dimethoxy-N-(5-(pyridin-2-yloxy)-3,4-dihydro-2H-chromeno[8,7-d]isoxazol-9-yl)benzenesulfonamide] | 12.9 10^-6 cm/s | Efflux Ratio (Caco-2 cells; Caco-2, bi-directional, pH 7.40, 2 hours): 3.2
7 | COc1ccnc(OC)c1S(=O)(=O)Nc1noc2cc(Oc3ccccn3)c3c(c12)OCCC3 [Compound 28, 2,4-dimethoxy-N-(5-(pyridin-2-yloxy)-3,4-dihydro-2H-chromeno[8,7-d]isoxazol-9-yl)pyridine-3-sulfonamide] | 2.38 10^-6 cm/s | –
8 | COc1cccc(OC)c1S(=O)(=O)Nc1noc2cc(Cc3ccccn3)c3c(c12)OCCC3 [Compound 46, 2,6-dimethoxy-N-(5-(pyridin-2-ylmethyl)-3,4-dihydro-2H-chromeno[8,7-d]isoxazol-9-yl)benzenesulfonamide] | 2.66 10^-6 cm/s | –
9 | COc1cccc(OC)c1S(=O)(=O)Nc1noc2cc(Cc3nccs3)c3c(c12)OCCC3 [Compound 47] | 3.53 10^-6 cm/s | –
10 | COc1cc(C)nc(OC)c1S(=O)(=O)Nc1noc2cc(Oc3nccs3)cc(OCF)c12 [Compound 55, N-(4-(fluoromethoxy)-6-(thiazol-2-yloxy)benzo[d]isoxazol-3-yl)-2,4-dimethoxy-6-methylpyridine-3-sulfonamide] | 1.46 10^-6 cm/s | –
11 | COc1ccccc1S(=O)(=O)Nc1noc2cc(Oc3nccs3)cc(OCF)c12 [Compound 56, N-(4-(fluoromethoxy)-6-(thiazol-2-yloxy)benzo[d]isoxazol-3-yl)-2-methoxybenzenesulfonamide] | 5.28 10^-6 cm/s | –
12 | COc1cccc(OC)c1S(=O)(=O)Nc1noc2cc(Oc3nccs3)cc(OC)c12 [Compound 59, 2,6-dimethoxy-N-(4-methoxy-6-(thiazol-2-yloxy)benzo[d]isoxazol-3-yl)benzenesulfonamide] | 6.20 10^-6 cm/s | –
13 | COc1ccccc1S(=O)(=O)Nc1noc2cc(Oc3nccs3)cc(OC)c12 [Compound 60, 2-methoxy-N-(4-methoxy-6-(thiazol-2-yloxy)benzo[d]isoxazol-3-yl)benzenesulfonamide] | 13.7 10^-6 cm/s | –
14 | COc1ccccc1S(=O)(=O)Nc1noc2cc(Oc3nccs3)c3c(c12)OCCC3 [Compound 61, 2-methoxy-N-(5-(thiazol-2-yloxy)-3,4-dihydro-2H-chromeno[8,7-d]isoxazol-9-yl)benzenesulfonamide] | 9.38 10^-6 cm/s | –
15 | COc1cccc(OC)c1S(=O)(=O)Nc1noc2cc(Oc3nccs3)c3c(c12)OCCCC3 [Compound 62, 2,6-dimethoxy-N-(6-(thiazol-2-yloxy)-2,3,4,5,9,10-hexahydrooxepino [3′,2′: 5,6]benzo[1,2-d]isoxazol-10-yl)benzenesulfonamide] | 10.6 10^-6 cm/s | –
16 | COc1ccccc1S(=O)(=O)Nc1noc2cc(Oc3nccs3)c3c(c12)OCCCC3 [Compound 63] | 6.48 10^-6 cm/s | –
17 | COc1cc(C)nc(OC)c1S(=O)(=O)Nc1noc2cc(Oc3nccs3)c3c(c12)OCCCC3 [Compound 64] | 9.00 10^-6 cm/s | –
18 | COc1ccccc1S(=O)(=O)Nc1noc2cc(Cn3cccn3)cc(OC)c12 [Compound 70] | – | body weight [1]: maintained the body weight well
19 | CCNCCc1ccc(CN(CC)c2cc(OC)ccc2[C@@H]2CCc3cc(O)ccc3C2)cc1 [elacestrant, reference compound] | – | IC50 ([2]; elacestrant single agent, 1 nM E2, read-out: IC50 (cytotoxic action)): 260 nM; IC25 ([2]; elacestrant, 1 nM E2): 56 nM; IC10 ([2]; single agent, 1 nM E2): 10 nM; IC25 ([2]; single agent, 1 nM E2): 56 nM; IC75 ([2]; single agent, 1 nM E2, non clinically relevant dose): 1430 nM; IC50 ([2]; single agent, 1 nM E2, read-out: IC50): 260 nM

— US20260294884A1 (Insilico Medicine IP Limited, priority 2023, published 2026)
